How the values were obtained:
[1] = biological target: T1, POLD1 (p125, catalytic subunit of Polδ) (Xenopus laevis, UniProt Q642R8); assay: CETSA in Xenopus egg extracts ([…] BKC), western blot; assay type: cell-free
T1 construct: gene pold1.L
T1 sequence (Q642R8 1-1109): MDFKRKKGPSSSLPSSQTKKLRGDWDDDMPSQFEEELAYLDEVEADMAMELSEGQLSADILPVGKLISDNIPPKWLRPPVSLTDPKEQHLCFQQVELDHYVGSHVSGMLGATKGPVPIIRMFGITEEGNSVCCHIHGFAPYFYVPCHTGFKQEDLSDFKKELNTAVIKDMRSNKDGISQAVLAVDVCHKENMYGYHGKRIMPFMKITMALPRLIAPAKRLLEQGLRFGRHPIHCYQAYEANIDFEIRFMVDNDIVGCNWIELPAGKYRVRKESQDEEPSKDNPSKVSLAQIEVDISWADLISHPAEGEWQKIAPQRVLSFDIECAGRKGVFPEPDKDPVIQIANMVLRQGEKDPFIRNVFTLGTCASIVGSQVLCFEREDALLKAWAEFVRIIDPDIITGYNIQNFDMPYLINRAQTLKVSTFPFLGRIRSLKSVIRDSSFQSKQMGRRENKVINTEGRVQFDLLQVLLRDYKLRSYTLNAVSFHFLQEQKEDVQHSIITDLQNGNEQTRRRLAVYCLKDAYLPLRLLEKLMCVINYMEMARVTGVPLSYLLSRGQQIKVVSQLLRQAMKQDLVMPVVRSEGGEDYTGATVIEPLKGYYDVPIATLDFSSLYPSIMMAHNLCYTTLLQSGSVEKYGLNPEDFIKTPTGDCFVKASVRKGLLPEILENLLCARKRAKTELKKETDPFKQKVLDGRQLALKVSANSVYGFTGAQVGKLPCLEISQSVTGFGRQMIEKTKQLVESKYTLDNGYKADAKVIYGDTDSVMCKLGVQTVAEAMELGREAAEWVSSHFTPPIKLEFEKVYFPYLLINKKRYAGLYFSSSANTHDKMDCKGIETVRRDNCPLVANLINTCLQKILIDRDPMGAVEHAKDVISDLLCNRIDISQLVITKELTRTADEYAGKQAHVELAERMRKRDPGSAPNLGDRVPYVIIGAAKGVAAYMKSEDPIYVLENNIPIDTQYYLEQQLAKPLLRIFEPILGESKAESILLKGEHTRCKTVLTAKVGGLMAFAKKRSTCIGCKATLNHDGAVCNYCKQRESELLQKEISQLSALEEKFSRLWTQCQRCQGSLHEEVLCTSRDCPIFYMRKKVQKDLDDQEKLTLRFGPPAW

[2] = biological target: POLE (catalytic subunit of DNA polymerase ε) (Homo sapiens, UniProt Q07864); assay: CETSA in MCF-7 cells ([…] BKC), western blot; assay type: cell-based
[3] = biological target: T2, POLD1 (catalytic subunit of DNA polymerase δ) (Homo sapiens, UniProt P28340); assay: CETSA in MCF-7 cells ([…] BKC), western blot; assay type: cell-based
T2 sequence (P28340 1-1107): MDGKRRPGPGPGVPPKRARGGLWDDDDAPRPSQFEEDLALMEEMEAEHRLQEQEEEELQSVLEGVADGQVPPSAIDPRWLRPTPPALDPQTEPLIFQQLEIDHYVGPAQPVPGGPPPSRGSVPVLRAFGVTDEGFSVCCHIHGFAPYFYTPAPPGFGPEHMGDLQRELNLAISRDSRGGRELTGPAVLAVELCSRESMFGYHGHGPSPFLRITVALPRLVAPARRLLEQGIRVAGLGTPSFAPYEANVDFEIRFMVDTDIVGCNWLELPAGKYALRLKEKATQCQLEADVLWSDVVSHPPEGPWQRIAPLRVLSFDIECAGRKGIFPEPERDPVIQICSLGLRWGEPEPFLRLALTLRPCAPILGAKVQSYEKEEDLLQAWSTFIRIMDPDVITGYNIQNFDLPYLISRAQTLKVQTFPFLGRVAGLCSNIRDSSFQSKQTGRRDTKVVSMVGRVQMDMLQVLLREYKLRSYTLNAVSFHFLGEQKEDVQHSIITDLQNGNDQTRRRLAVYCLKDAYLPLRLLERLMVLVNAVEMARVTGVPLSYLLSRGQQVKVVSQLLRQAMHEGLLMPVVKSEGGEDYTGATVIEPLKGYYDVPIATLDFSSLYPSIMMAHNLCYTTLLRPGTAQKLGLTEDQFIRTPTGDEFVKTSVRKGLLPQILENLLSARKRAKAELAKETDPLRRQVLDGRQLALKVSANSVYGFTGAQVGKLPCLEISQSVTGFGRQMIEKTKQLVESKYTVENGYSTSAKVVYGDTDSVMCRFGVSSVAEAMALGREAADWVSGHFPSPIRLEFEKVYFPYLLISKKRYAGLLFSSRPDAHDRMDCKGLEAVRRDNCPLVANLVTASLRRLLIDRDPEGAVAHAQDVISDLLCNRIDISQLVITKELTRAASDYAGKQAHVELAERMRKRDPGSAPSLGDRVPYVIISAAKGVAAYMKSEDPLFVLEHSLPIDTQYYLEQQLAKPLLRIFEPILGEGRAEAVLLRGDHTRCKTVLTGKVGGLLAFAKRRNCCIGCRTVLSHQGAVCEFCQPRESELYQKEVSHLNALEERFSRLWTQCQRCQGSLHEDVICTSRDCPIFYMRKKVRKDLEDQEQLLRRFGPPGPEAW

Aurora-A = biological target: T3, Aurora-A (Homo sapiens, UniProt O14965); assay: radiometric in vitro kinase assay (Eurofins KinaseProfiler); assay type: biochemical
T3 construct: gene AURKA
T3 sequence (O14965 1-403): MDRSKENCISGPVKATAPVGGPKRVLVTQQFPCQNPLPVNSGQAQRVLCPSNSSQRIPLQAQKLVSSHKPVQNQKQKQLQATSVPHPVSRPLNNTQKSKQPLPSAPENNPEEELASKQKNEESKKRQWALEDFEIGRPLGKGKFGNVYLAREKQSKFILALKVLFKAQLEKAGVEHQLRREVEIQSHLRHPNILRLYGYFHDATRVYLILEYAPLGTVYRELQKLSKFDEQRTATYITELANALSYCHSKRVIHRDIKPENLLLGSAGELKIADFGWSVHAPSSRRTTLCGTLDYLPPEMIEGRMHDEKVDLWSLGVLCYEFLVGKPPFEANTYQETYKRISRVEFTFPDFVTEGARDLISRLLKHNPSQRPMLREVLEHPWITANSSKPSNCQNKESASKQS

Aurora-B = biological target: T4, Aurora-B (Homo sapiens, UniProt Q96GD4); assay: as above; assay type: biochemical
T4 construct: gene AURKB

CHK2 = biological target: T5, CHK2 (Homo sapiens, UniProt O96017); assay: radiometric in vitro kinase assay (Eurofins KinaseProfiler); also CETSA in MCF-7 cells; assay type: biochemical
T5 construct: gene CHEK2

JNK3 = biological target: T6, JNK3 (Homo sapiens, UniProt P53779); assay: radiometric in vitro kinase assay (Eurofins KinaseProfiler); assay type: biochemical
T6 construct: gene MAPK10

AKT1/PKBα = AKT1/PKBα (Homo sapiens, UniProt P31749); assay: as above; assay type: biochemical
AKT1/PKBα, sequence (P31749 whole entry): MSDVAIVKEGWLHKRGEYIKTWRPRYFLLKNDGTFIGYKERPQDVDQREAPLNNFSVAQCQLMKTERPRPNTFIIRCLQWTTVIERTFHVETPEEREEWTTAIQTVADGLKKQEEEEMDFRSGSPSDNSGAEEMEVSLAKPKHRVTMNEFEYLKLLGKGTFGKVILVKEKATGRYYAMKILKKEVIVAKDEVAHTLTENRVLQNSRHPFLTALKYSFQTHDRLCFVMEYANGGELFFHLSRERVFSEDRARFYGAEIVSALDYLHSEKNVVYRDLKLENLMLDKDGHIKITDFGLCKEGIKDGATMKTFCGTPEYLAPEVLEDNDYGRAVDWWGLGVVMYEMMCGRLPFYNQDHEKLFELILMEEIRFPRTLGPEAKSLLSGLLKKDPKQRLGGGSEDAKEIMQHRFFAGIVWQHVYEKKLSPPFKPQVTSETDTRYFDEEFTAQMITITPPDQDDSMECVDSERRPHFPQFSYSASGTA

T4 sequence (Q96GD4 whole entry): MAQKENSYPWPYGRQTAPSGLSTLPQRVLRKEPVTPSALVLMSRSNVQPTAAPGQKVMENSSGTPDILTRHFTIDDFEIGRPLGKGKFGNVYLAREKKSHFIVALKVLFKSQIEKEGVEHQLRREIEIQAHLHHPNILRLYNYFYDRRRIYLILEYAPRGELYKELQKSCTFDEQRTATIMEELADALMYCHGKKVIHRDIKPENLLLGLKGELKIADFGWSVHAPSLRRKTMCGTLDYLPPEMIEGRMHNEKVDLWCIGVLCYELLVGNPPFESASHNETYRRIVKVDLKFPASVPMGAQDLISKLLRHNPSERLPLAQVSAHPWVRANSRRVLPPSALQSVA
POLE (catalytic subunit of DNA polymerase ε), sequence (Q07864 whole entry): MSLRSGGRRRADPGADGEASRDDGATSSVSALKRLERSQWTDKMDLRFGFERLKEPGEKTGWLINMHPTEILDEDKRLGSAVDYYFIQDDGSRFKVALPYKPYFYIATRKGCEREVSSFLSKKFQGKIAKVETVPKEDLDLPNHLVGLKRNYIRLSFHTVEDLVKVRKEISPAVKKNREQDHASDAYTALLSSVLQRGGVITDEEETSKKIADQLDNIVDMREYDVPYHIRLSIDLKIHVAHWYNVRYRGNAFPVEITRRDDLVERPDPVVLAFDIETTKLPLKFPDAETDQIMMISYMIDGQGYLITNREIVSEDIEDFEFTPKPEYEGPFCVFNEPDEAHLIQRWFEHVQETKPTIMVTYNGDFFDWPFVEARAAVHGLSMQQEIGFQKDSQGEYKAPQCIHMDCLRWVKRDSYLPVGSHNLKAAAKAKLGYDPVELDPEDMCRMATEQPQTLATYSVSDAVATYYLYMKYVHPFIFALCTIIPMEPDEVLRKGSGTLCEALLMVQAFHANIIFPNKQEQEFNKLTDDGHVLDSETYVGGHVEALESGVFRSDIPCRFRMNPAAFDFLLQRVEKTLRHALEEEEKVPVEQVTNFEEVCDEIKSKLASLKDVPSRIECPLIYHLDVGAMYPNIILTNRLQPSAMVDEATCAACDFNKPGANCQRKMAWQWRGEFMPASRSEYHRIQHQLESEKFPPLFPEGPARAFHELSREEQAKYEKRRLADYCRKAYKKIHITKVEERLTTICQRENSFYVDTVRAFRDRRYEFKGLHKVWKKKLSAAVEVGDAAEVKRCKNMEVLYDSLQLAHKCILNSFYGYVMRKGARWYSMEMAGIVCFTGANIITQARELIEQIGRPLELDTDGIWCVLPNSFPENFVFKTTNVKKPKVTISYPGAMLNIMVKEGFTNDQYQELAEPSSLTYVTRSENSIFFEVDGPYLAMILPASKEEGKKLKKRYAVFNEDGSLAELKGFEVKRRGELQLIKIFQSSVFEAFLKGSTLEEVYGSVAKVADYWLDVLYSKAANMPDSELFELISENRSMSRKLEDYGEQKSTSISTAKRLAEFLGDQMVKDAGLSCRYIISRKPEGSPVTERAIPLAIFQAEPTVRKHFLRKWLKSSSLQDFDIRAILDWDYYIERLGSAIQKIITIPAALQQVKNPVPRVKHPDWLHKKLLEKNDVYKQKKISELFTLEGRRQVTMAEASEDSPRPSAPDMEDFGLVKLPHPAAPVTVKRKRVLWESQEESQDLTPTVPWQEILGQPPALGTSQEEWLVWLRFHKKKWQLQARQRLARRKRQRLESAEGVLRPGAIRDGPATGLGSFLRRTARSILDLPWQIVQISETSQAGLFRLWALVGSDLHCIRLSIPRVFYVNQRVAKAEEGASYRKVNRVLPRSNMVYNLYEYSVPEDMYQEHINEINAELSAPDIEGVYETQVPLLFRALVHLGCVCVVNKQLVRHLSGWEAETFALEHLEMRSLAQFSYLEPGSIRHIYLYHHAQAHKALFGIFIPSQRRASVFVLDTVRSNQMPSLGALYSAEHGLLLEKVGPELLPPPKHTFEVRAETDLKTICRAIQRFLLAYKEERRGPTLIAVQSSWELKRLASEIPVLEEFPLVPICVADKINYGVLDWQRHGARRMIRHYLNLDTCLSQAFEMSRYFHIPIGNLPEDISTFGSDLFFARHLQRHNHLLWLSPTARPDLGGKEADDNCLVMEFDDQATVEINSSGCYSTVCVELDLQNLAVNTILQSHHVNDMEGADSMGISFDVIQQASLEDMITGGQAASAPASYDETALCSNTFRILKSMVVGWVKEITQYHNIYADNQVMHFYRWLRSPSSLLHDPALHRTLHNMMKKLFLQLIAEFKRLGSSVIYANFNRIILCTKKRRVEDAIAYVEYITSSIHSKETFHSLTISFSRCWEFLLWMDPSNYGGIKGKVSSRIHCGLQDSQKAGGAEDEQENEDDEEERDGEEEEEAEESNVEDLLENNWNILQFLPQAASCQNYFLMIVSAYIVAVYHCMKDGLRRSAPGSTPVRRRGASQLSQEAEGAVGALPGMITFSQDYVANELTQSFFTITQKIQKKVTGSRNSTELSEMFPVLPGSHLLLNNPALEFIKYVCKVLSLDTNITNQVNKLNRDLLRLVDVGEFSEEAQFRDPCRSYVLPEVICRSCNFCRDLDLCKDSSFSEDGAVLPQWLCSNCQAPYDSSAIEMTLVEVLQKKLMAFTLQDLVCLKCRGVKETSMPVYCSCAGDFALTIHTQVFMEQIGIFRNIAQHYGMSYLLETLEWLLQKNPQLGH
T6 sequence (P53779 whole entry): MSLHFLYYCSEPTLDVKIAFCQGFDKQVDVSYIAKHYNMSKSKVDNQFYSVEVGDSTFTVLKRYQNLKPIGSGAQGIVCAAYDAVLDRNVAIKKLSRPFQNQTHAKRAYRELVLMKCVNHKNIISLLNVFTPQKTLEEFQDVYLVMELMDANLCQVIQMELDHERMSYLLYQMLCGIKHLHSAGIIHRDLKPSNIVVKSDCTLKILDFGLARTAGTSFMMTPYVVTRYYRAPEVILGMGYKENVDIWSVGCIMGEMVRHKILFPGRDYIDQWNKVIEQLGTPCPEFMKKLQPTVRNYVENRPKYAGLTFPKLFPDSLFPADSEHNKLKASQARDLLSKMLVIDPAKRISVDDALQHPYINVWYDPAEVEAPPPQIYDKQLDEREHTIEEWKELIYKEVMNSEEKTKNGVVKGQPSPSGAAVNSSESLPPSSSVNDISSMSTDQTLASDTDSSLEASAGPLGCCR
T5 sequence (O96017 whole entry): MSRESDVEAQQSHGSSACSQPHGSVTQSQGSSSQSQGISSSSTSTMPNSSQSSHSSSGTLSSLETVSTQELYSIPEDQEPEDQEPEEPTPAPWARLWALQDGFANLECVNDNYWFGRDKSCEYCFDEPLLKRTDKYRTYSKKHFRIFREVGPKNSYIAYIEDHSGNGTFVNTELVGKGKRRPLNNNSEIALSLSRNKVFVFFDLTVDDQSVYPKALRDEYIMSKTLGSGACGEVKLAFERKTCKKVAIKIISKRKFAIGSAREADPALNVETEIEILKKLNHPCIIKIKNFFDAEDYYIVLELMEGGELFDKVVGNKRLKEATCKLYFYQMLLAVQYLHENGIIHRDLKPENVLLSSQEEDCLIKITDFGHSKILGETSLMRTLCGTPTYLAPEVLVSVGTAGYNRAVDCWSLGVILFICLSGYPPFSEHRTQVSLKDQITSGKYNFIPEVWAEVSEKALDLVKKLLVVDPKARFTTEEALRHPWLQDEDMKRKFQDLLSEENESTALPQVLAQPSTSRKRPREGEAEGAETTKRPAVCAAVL

Row | IC50 (Aurora-A) | IC50 (Aurora-B) | IC50 (CHK2) | IC50 (JNK3) | IC50 (AKT1/PKBα) | SMILES | CETSA in Xenopus egg extracts (40 μM BKC), western blot [1] | CETSA in MCF-7 cells (40 μM BKC), western blot [2] | CETSA in MCF-7 cells (40 μM BKC), western blot [3]
1 | – | – | – | – | – | C=C[C@@](C)(/C=C/c1ccc(O)cc1)CCC=C(C)C [BKC, Bakuchiol] | BKC specifically stabilize the catalytic subunit POLD1 of Polδ, but not that of the accessory subunit POLD3 in Xenopus | BKC interacts with the catalytic subunits of Polδ and Polε in MCF-7 cells | BKC interacts with the catalytic subunits of Polδ and Polε in MCF-7 cells
2 | 11.2 µM | 11.2 µM | 3.5 µM | 16.4 µM | 56.7 µM | CC(C)=CCc1c(O)ccc(C(=O)/C=C/c2ccc(O)cc2)c1O [IBC, Isobavachalcone] | – | – | –

— article PMC11785374, “Synergistic effect of inhibiting CHK2 and DNA replication on cancer cell growth” (eLife, 2025)
